The values below are quoted from earlier work in patent US20170304500A1, “MICROFABRICATED TISSUE SCAFFOLDS AND METHODS OF MAKING AND USING THE SAME” (TARA BIOSYSTEMS INC., priority 2014, published 2017).

The subject of the data set is artery and vein. The conditions noted are these: released from hydrogel; reported in PNAS; cited from earlier work.

As to “thymosin Beta-4: peptide controllably released from a hydrogel (SDKPDMAEIEKFDKSKLKKTETQEKNPLPSKETIEQEKQAGES; Thymosin beta-4 released from hydrogel; UniProt P62328 2-44, looked up)”, the angiogenesis entry is recorded as “stimulated angiogenesis”.
